Active and inactive are the calls of the source. The calls are words filed in the database; no cut-off is given here.
Tests used:
U-87 MG [1] = test: Induction of apoptosis in human U-87 MG cells assessed as late apoptotic cells at 20 uM incubated for 24 hrs by Annexin V-APC/7-AAD staining based flow cytometric analysis (reference value: 7.7 %); format: functional, U-87MG ATCC
U-87 MG [2] = test: Induction of apoptosis in human U-87 MG cells assessed as early apoptotic cells at 5 uM incubated for 24 hrs by Annexin V-APC/7-AAD staining based flow cytometric analysis (reference value: 1.59 %); format: functional, U-87MG ATCC
U-87 MG [3] = test: Induction of apoptosis in human U-87 MG cells assessed as necrotic cells at 10 uM incubated for 24 hrs by Annexin V-APC/7-AAD staining based flow cytometric analysis (reference value: 0.21 %); format: functional, U-87MG ATCC
U-87 MG [4] = test: Induction of apoptosis in human U-87 MG cells assessed as necrotic cells at 20 uM incubated for 24 hrs in presence of R7050 by Annexin V-APC/7-AAD staining based flow cytometric analysis (reference value: 3.85 %); format: functional, U-87MG ATCC
LN-229 [5] = test: Induction of apoptosis in human LN-229 cells assessed as necrotic cells at 20 uM incubated for 24 hrs by Annexin V-APC/7-AAD staining based flow cytometric analysis (reference value: 0.56 %); format: functional
U-87 MG [6] = test: Induction of apoptosis in human U-87 MG cells assessed as late apoptotic cells at 10 uM incubated for 24 hrs by Annexin V-APC/7-AAD staining based flow cytometric analysis (reference value: 4.22 %); format: functional, U-87MG ATCC
[7] = Drug concentration in C57BL/6J mouse brain at 9 mg/kg,iv administration measured after 30 mins by LC-MS analysis; format: ADME, organism-based; settings: read-out: Ct
U-87 MG [8] = test: Induction of apoptosis in human U-87 MG cells at 20 uM incubated for 24 hrs by Annexin V-APC/7-AAD staining based flow cytometric analysis (reference value: 5.67 +/- 1.49 %); format: functional, U-87MG ATCC
U-87 MG [9] = test: Induction of apoptosis in human U-87 MG cells assessed as late apoptotic cells at 20 uM incubated for 12 hrs by Annexin V-APC/7-AAD staining based flow cytometric analysis (reference value: 3.44 %); format: functional, U-87MG ATCC
LN-229 [10] = test: Induction of apoptosis in human LN-229 cells assessed as necrotic cells at 20 uM incubated for 24 hrs in presence of R7050 by Annexin V-APC/7-AAD staining based flow cytometric analysis (reference value: 1.95 %); format: functional
U-87 MG [11] = test: Induction of apoptosis in human U-87 MG cells assessed as early apoptotic cells at 20 uM incubated for 24 hrs by Annexin V-APC/7-AAD staining based flow cytometric analysis (reference value: 3.44 %); format: functional, U-87MG ATCC
U-87 MG [12] = test: Induction of apoptosis in human U-87 MG cells assessed as early apoptotic cells at 20 uM incubated for 48 hrs by Annexin V-APC/7-AAD staining based flow cytometric analysis (reference value: 0.94 %); format: functional, U-87MG ATCC
LN-229 [13] = test: Induction of apoptosis in human LN-229 cells assessed as early apoptotic cells at 10 uM incubated for 24 hrs by Annexin V-APC/7-AAD staining based flow cytometric analysis (reference value: 0.45 %); format: functional
LN-229 [14] = test: Induction of apoptosis in human LN-229 cells assessed as early apoptotic cells at 20 uM incubated for 24 hrs in presence of R7050 by Annexin V-APC/7-AAD staining based flow cytometric analysis (reference value: 0.91 %); format: functional
U-87 MG [15] = test: Induction of apoptosis in human U-87 MG cells assessed as late apoptotic cells at 20 uM incubated for 24 hrs in presence of R7050 by Annexin V-APC/7-AAD staining based flow cytometric analysis (reference value: 7.7 %); format: functional, U-87MG ATCC
U-87 MG [16] = test: Induction of apoptosis in human U-87 MG cells assessed as viable cells at 10 uM incubated for 24 hrs by Annexin V-APC/7-AAD staining based flow cytometric analysis (reference value: 94 %); format: functional, U-87MG ATCC; settings: read-out: Activity
U-87 MG [17] = test: Induction of apoptosis in human U-87 MG cells assessed as early apoptotic cells at 10 uM incubated for 24 hrs by Annexin V-APC/7-AAD staining based flow cytometric analysis (reference value: 1.59 %); format: functional, U-87MG ATCC
LN-229 [18] = test: Induction of apoptosis in human LN-229 cells assessed as late apoptotic cells at 20 uM incubated for 24 hrs by Annexin V-APC/7-AAD staining based flow cytometric analysis (reference value: 4.86 %); format: functional
U-87 MG [19] = test: Induction of apoptosis in human U-87 MG cells assessed as late apoptotic cells at 20 uM incubated for 48 hrs by Annexin V-APC/7-AAD staining based flow cytometric analysis (reference value: 3.44 %); format: functional, U-87MG ATCC
LN-229 [20] = test: Induction of apoptosis in human LN-229 cells assessed as viable cells at 5 uM incubated for 24 hrs by Annexin V-APC/7-AAD staining based flow cytometric analysis (reference value: 95.4 %); format: functional; settings: read-out: Activity
LN-229 [21] = test: Induction of apoptosis in human LN-229 cells at 20 uM incubated for 24 hrs by Annexin V-APC/7-AAD staining based flow cytometric analysis (reference value: 4.47 +/- 1.09 %); format: functional
U-87 MG [22] = test: Induction of apoptosis in human U-87 MG cells assessed as necrotic cells at 20 uM incubated for 24 hrs by Annexin V-APC/7-AAD staining based flow cytometric analysis (reference value: 3.85 %); format: functional, U-87MG ATCC
U-87 MG [23] = test: Induction of apoptosis in human U-87 MG cells at 10 uM incubated for 48 hrs by Annexin V-APC/7-AAD staining based flow cytometric analysis (reference value: 5.43 +/- 0.54 %); format: functional, U-87MG ATCC
LN-229 [24] = test: Induction of apoptosis in human LN-229 cells assessed as necrotic cells at 5 uM incubated for 24 hrs by Annexin V-APC/7-AAD staining based flow cytometric analysis (reference value: 0.56 %); format: functional
LN-229 [25] = test: Induction of apoptosis in human LN-229 cells assessed as late apoptotic cells at 20 uM incubated for 48 hrs by Annexin V-APC/7-AAD staining based flow cytometric analysis (reference value: 5.1 %); format: functional
U-87 MG [26] = test: Induction of apoptosis in human U-87 MG cells assessed as early apoptotic cells at 20 uM incubated for 12 hrs by Annexin V-APC/7-AAD staining based flow cytometric analysis (reference value: 0.94 %); format: functional, U-87MG ATCC
U-87 MG [27] = test: Induction of apoptosis in human U-87 MG cells assessed as viable cells at 20 uM incubated for 24 hrs in presence of R7050 by Annexin V-APC/7-AAD staining based flow cytometric analysis (reference value: 85 %); format: functional, U-87MG ATCC; settings: read-out: Activity
LN-229 [28] = test: Induction of apoptosis in human LN-229 cells assessed as early apoptotic cells at 20 uM incubated for 24 hrs by Annexin V-APC/7-AAD staining based flow cytometric analysis (reference value: 0.45 %); format: functional
LN-229 [29] = test: Induction of apoptosis in human LN-229 cells assessed as late apoptotic cells at 10 uM incubated for 24 hrs by Annexin V-APC/7-AAD staining based flow cytometric analysis (reference value: 3.56 %); format: functional
U-87 MG [30] = test: Induction of apoptosis in human U-87 MG cells assessed as necrotic cells at 5 uM incubated for 24 hrs by Annexin V-APC/7-AAD staining based flow cytometric analysis (reference value: 0.21 %); format: functional, U-87MG ATCC
U-87 MG [31] = test: Induction of apoptosis in human U-87 MG cells assessed as upregulation of TNF-alpha gene expression incubated for 24 hrs by transcriptome sequencing analysis; format: functional, cell-based; settings: U-87MG ATCC

CCCCCCCNC(=O)[C@H](Cc1c[nH]c2ccccc12)NC(=O)C(C)(c1c[nH]c2ccccc12)c1c[nH]c2ccccc12
Activity (U-87 MG [1]): 10% | Activity (U-87 MG [2]): 2.06% | Activity (U-87 MG [3]): 0.21% | Activity (U-87 MG [4]): 0.86% | Activity (LN-229 [5]): 1.42% | Activity (U-87 MG [6]): 6.16% | concentration at 0.5 h [7]: 241 ng/g | Activity (U-87 MG [8]): 13.95% | Activity (U-87 MG [9]): 3.62% | Activity (LN-229 [10]): 1.25% | Activity (U-87 MG [11]): 16.8% | Activity (U-87 MG [12]): 5.06% | Activity (LN-229 [13]): 3.58% | Activity (LN-229 [14]): 1.48% | Activity (U-87 MG [15]): 2.87% | viability at 10 µM (U-87 MG [16]): 89.2% | Activity (U-87 MG [17]): 4.46% | Activity (LN-229 [18]): 7.62% | Activity (U-87 MG [19]): 11.6% | viability at 5 µM (LN-229 [20]): 95% | Activity (LN-229 [21]): 21.2% | Activity (U-87 MG [22]): 8.66% | Activity (U-87 MG [23]): 17.37% | Activity (LN-229 [24]): 0.46% | Activity (LN-229 [25]): 41.9% | Activity (U-87 MG [26]): 1.53% | viability at 20 µM (U-87 MG [27]): 87.6% | Activity (LN-229 [28]): 13.8% | Activity (LN-229 [29]): 6.38% | Activity (U-87 MG [30]): 0.14% | Activity (U-87 MG [31]): Active
